Source: patent US20230089368A1, “POLYAROMATIC UREA DERIVATIVES AND THEIR USE IN THE TREATMENT OF MUSCLE DISEASES” (ANAGENESIS BIOTECHNOLOGIES S.A.S., priority 2019, published 2023)

What was measured:
[1] = system: muscle progenitors (hMP) from DMD hiPSC or WT hiPSC; test: Myotube assay: myogenic activity (total myotube area per well); assay type: cell-based, human; conditions: for Emax: Homo sapiens, 72 h, myotube assay, compounds incubated 3 days, read-out: MA (normalized Myotube Area, efficacy)
Procedure, shortened: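 DMD or WT hiPSC-derived muscle progenitors plated on collagen I in K5 medium with 5 μM Y-27632, treated with compound (1.5 nM–30 μM) for 3 days at 37° C. Cells were fixed, stained for alpha-actinin and imaged for total myotube area per well. EC50 and normalized myotube area (MA) taken from duplicate-averaged data.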

[2] = system: satellite-like cells (Pax7-positive cells) in hMP; test: Myotube assay: Pax7-positive (satellite-like) cell quantification; assay type: cell-based, human; parameters: key to Pax7% (pool of Pax7-positive cells) / Pax7: −: Depletes the pool of cells, while positively affects the myotubes; +: Maintains or increases the pool of cells, with at least 1 of the highest concentration known to be cytotoxic; ++: Maintains or increases the pool of cells, without any toxicity; conditions: for Pax7% (pool of Pax7-positive cells): myotube assay, compounds incubated 3 days
Procedure, shortened: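 DMD hiPSC-derived muscle progenitors (hMP) proliferated 4 days, then plated on collagen I in K5 medium with 5 μM Y-27632. Compound added at 1.5 nM–30 μM for 3 days at 37° C, then cells fixed and immunostained. Pax7-positive cells counted as percentage of total nuclei, duplicates averaged.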

Row | Compound | Emax [1] [%] | Pax7% (pool of Pax7-positive cells) [2] | MA ([1]; comparative compounds, same assay, NA: non active) | EC50 ([1]; comparative compounds, same assay, NA: non active, read-out: EC50) [nM] | Pax7 ([2]; comparative compounds, same assay)
1 | CC(C)(C)c1cc(NC(=O)Nc2ccc(Oc3ccnc4[nH]c(=O)cnc34)cc2C(F)(F)F)n(-c2ccccc2)n1 [(v), 1-(3-(tert-butyl)-1-phenyl-1H-pyrazol-5-yl)-3-(4-((3-oxo-3,4-dihydropyrido[2,3-b]pyrazin-8-yl)oxy)-2-(trifluoromethyl)phenyl)urea] | ≥ 75 | ++ |  |  | 
2 | Cc1nc2c(Oc3ccc(NC(=O)Nc4cc(C(C)(C)C)nn4-c4ccccc4)c(F)c3)ccnc2c(=O)[nH]1 [(w), 1-(3-(tert-butyl)-1-phenyl-1H-pyrazol-5-yl)-3-(2-fluoro-4-((2-methyl-4-oxo-3,4-dihydropyrido[3,2-d]pyrimidin-8-yl)oxy)phenyl)urea] | 50 to 75 | ++ |  |  | 
3 | O=C(Nc1ccc(Oc2ccnc3[nH]c(=O)cnc23)cc1F)Nc1c2c(nn1-c1ccccc1)CCC2 [(x), 1-(2-fluoro-4-((3-oxo-3,4-dihydropyrido[2,3-b]pyrazin-8-yl)oxy)phenyl)-3-(2-phenyl-2,4,5,6-tetrahydrocyclopenta[c]pyrazol-3-yl)urea] | 25 to 50 | ++ |  |  | 
4 | O=C(Nc1ccc(Oc2ccnc3[nH]c(=O)cnc23)cc1F)Nc1c(-c2ccccc2)nn2c1CCC2 [(y), 1-(2-fluoro-4-((3-oxo-3,4-dihydropyrido[2,3-b]pyrazin-8-yl)oxy)phenyl)-3-(2-phenyl-5,6-dihydro-4H-pyrrolo[1,2-b]pyrazol-3-yl)urea] | 25 to 50 | ++ |  |  | 
5 | CSc1cc(Oc2ccnc3[nH]c(=O)cnc23)ccc1NC(=O)Nc1nnc(C(C)(C)C)s1 [(z), 1-(5-(tert-butyl)-1,3,4-thiadiazol-2-yl)-3-(2-(methylthio)-4-((3-oxo-3,4-dihydropyrido[2,3-b]pyrazin-8-yl)oxy)phenyl)urea] | ≥ 75 | ++ |  |  | 
6 | CC(C)(C)c1cc(NC(=O)Nc2ccc(Oc3ccnc4[nH]c(=O)cnc34)cc2F)n(-c2ccccc2)n1 [CCT196969] |  |  | ++ (50%≤MA<75%) | 500 to 1000 | +
